# Key:
# Assay type in all cases: functional
# Settings in all cases: values are per cent of control
# UO-31 = assay: Antiproliferative activity against human UO31 cells at 10 uM assessed as cell growth inhibition relative to control
# PC-3 = assay: Antiproliferative activity against human PC3 cells at 10 uM assessed as cell growth inhibition relative to control
# HOP-92 = assay: Antiproliferative activity against human HOP92 cells at 10 uM assessed as cell growth inhibition relative to control
# NCI-H226 = assay: Antiproliferative activity against human NCI-H226 cells at 10 uM assessed as cell growth inhibition relative to control
# MOLT-4 = assay: Antiproliferative activity against human MOLT4 cells at 10 uM assessed as cell growth inhibition relative to control
# UACC-62 = assay: Antiproliferative activity against human UACC62 cells at 10 uM assessed as cell growth inhibition relative to control
# MDA-MB-231 = assay: Antiproliferative activity against human MDA-MB-231 cells at 10 uM assessed as cell growth inhibition relative to control
# M14 = assay: Antiproliferative activity against human M14 cells at 10 uM assessed as cell growth inhibition relative to control
# SK-MEL-5 = assay: Antiproliferative activity against human SK-MEL-5 cells at 10 uM assessed as cell growth inhibition relative to control
# NCI-H23 = assay: Antiproliferative activity against human NCI-H23 cells at 10 uM assessed as cell growth inhibition relative to control
# NCI-H322M = assay: Antiproliferative activity against human NCI-H322M cells at 10 uM assessed as cell growth inhibition relative to control
# HOP-62 = assay: Antiproliferative activity against human HOP62 cells at 10 uM assessed as cell growth inhibition relative to control
# OVCAR-8 = assay: Antiproliferative activity against human OVCAR8 cells at 10 uM assessed as cell growth inhibition relative to control
# HL-60(TB) = assay: Antiproliferative activity against human HL-60(TB) cells at 10 uM assessed as cell growth inhibition relative to control
# NCI-H522 = assay: Antiproliferative activity against human NCI-H522 cells at 10 uM assessed as cell growth inhibition relative to control
# SK-MEL-28 = assay: Antiproliferative activity against human SK-MEL-28 cells at 10 uM assessed as cell growth inhibition relative to control
# NCI-H460 = assay: Antiproliferative activity against human NCI-H460 cells at 10 uM assessed as cell growth inhibition relative to control
# A498 = assay: Antiproliferative activity against human A498 cells at 10 uM assessed as cell growth inhibition relative to control
# U-251 = assay: Antiproliferative activity against human U251 cells at 10 uM assessed as cell growth inhibition relative to control
# K562 = assay: Antiproliferative activity against human K562 cells at 10 uM assessed as cell growth inhibition relative to control
# Malme-3M = assay: Antiproliferative activity against human MALME-3M cells at 10 uM assessed as cell growth inhibition relative to control
# EKVX = assay: Antiproliferative activity against human EKVX cells at 10 uM assessed as cell growth inhibition relative to control
# [1] = Antiproliferative activity against human […] cells at 10 uM assessed as cell growth inhibition relative to control
# SNB-75 = assay: Antiproliferative activity against human SNB75 cells at 10 uM assessed as cell growth inhibition relative to control
# DU-145 = assay: Antiproliferative activity against human DU145 cells at 10 uM assessed as cell growth inhibition relative to control
# HCT-15 = assay: Antiproliferative activity against human HCT15 cells at 10 uM assessed as cell growth inhibition relative to control
# BT-549 = assay: Antiproliferative activity against human BT549 cells at 10 uM assessed as cell growth inhibition relative to control
# OVCAR-4 = assay: Antiproliferative activity against human OVCAR4 cells at 10 uM assessed as cell growth inhibition relative to control
# HT-29 = assay: Antiproliferative activity against human HT-29 cells at 10 uM assessed as cell growth inhibition relative to control
# SF-268 = assay: Antiproliferative activity against human SF268 cells at 10 uM assessed as cell growth inhibition relative to control
# CCRF-CEM = assay: Antiproliferative activity against human CCRF-CEM cells at 10 uM assessed as cell growth inhibition relative to control
# T47D = assay: Antiproliferative activity against human T47D cells at 10 uM assessed as cell growth inhibition relative to control
# SK-MEL-2 = assay: Antiproliferative activity against human SK-MEL-2 cells at 10 uM assessed as cell growth inhibition relative to control
# IGROV-1 = assay: Antiproliferative activity against human IGROV1 cells at 10 uM assessed as cell growth inhibition relative to control
# RXF 393 = assay: Antiproliferative activity against human RXF393 cells at 10 uM assessed as cell growth inhibition relative to control
# SNB-19 = assay: Antiproliferative activity against human SNB19 cells at 10 uM assessed as cell growth inhibition relative to control
# [2] = Antiproliferative activity against human Hs 578T cells at 10 uM assessed as cell growth inhibition relative to control
# TK-10 = assay: Antiproliferative activity against human TK10 cells at 10 uM assessed as cell growth inhibition relative to control
# MCF7 = assay: Antiproliferative activity against human MCF7 cells at 10 uM assessed as cell growth inhibition relative to control
# SK-OV-3 = assay: Antiproliferative activity against human SKOV3 cells at 10 uM assessed as cell growth inhibition relative to control
# HCT-116 = assay: Antiproliferative activity against human HCT116 cells at 10 uM assessed as cell growth inhibition relative to control
# COLO 205 = assay: Antiproliferative activity against human COLO205 cells at 10 uM assessed as cell growth inhibition relative to control
# MDA-MB-468 = assay: Antiproliferative activity against human MDA-MB-468 cells at 10 uM assessed as cell growth inhibition relative to control
# SF-539 = assay: Antiproliferative activity against human SF539 cells at 10 uM assessed as cell growth inhibition relative to control
# CAKI-1 = assay: Antiproliferative activity against human Caki1 cells at 10 uM assessed as cell growth inhibition relative to control
# ACHN = assay: Antiproliferative activity against human ACHN cells at 10 uM assessed as cell growth inhibition relative to control
# SF-295 = assay: Antiproliferative activity against human SF295 cells at 10 uM assessed as cell growth inhibition relative to control
# UACC-257 = assay: Antiproliferative activity against human UACC257 cells at 10 uM assessed as cell growth inhibition relative to control
# A549 = assay: Antiproliferative activity against human A549 cells at 10 uM assessed as cell growth inhibition relative to control
# 786-0 = assay: Antiproliferative activity against human 786-0 cells at 10 uM assessed as cell growth inhibition relative to control
# KM12 = assay: Antiproliferative activity against human KM12 cells at 10 uM assessed as cell growth inhibition relative to control
# SN12C = assay: Antiproliferative activity against human SN12C cells at 10 uM assessed as cell growth inhibition relative to control
# OVCAR-5 = assay: Antiproliferative activity against human OVCAR5 cells at 10 uM assessed as cell growth inhibition relative to control
# SW-620 = assay: Antiproliferative activity against human SW620 cells at 10 uM assessed as cell growth inhibition relative to control
# OVCAR-3 = assay: Antiproliferative activity against human OVCAR-3 cells at 10 uM assessed as cell growth inhibition relative to control
# LOX IMVI = assay: Antiproliferative activity against human LOXIMVI cells at 10 uM assessed as cell growth inhibition relative to control
# HCC 2998 = assay: Antiproliferative activity against human HCC2998 cells at 10 uM assessed as cell growth inhibition relative to control
compound,measurement,setting,value
CCOC(=O)C[C@H]1[C@@H](O[Si](C)(C)C(C)(C)C)[C@H](n2cnc3c(N)ncnc32)O[C@@H]1CNC(=O)NC,"growth, % of control at 10 µM",UO-31,87%
same,"growth, % of control at 10 µM",PC-3,98%
same,"growth, % of control at 10 µM",HOP-92,94%
same,"growth, % of control at 10 µM",NCI-H226,99%
same,"growth, % of control at 10 µM",MOLT-4,108%
same,"growth, % of control at 10 µM",UACC-62,80%
same,"growth, % of control at 10 µM",MDA-MB-231,96%
same,"growth, % of control at 10 µM",M14,106%
same,"growth, % of control at 10 µM",SK-MEL-5,94%
same,"growth, % of control at 10 µM",NCI-H23,97%
same,"growth, % of control at 10 µM",NCI-H322M,94%
same,"growth, % of control at 10 µM",HOP-62,84%
same,"growth, % of control at 10 µM",OVCAR-8,100%
same,"growth, % of control at 10 µM",HL-60(TB),107%
same,"growth, % of control at 10 µM",NCI-H522,79%
same,"growth, % of control at 10 µM",SK-MEL-28,107%
same,"growth, % of control at 10 µM",NCI-H460,111%
same,"growth, % of control at 10 µM",A498,109%
same,"growth, % of control at 10 µM",U-251,98%
same,"growth, % of control at 10 µM",K562,106%
same,"growth, % of control at 10 µM",Malme-3M,95%
same,"growth, % of control at 10 µM",EKVX,92%
same,"growth, % of control at 10 µM",[1],98%
same,"growth, % of control at 10 µM",SNB-75,86%
same,"growth, % of control at 10 µM",DU-145,98%
same,"growth, % of control at 10 µM",HCT-15,97%
same,"growth, % of control at 10 µM",BT-549,85%
same,"growth, % of control at 10 µM",OVCAR-4,99%
same,"growth, % of control at 10 µM",HT-29,111%
same,"growth, % of control at 10 µM",SF-268,97%
same,"growth, % of control at 10 µM",CCRF-CEM,98%
same,"growth, % of control at 10 µM",T47D,95%
same,"growth, % of control at 10 µM",SK-MEL-2,91%
same,"growth, % of control at 10 µM",IGROV-1,97%
same,"growth, % of control at 10 µM",RXF 393,138%
same,"growth, % of control at 10 µM",SNB-19,99%
same,"growth, % of control at 10 µM",[2],98%
same,"growth, % of control at 10 µM",TK-10,101%
same,"growth, % of control at 10 µM",MCF7,87%
same,"growth, % of control at 10 µM",SK-OV-3,110%
same,"growth, % of control at 10 µM",HCT-116,100%
same,"growth, % of control at 10 µM",COLO 205,117%
same,"growth, % of control at 10 µM",MDA-MB-468,92%
same,"growth, % of control at 10 µM",SF-539,97%
same,"growth, % of control at 10 µM",CAKI-1,96%
same,"growth, % of control at 10 µM",ACHN,90%
same,"growth, % of control at 10 µM",SF-295,101%
same,"growth, % of control at 10 µM",UACC-257,86%
same,"growth, % of control at 10 µM",A549,84%
same,"growth, % of control at 10 µM",786-0,93%
same,"growth, % of control at 10 µM",KM12,103%
same,"growth, % of control at 10 µM",SN12C,88%
same,"growth, % of control at 10 µM",OVCAR-5,87%
same,"growth, % of control at 10 µM",SW-620,96%
same,"growth, % of control at 10 µM",OVCAR-3,98%
same,"growth, % of control at 10 µM",LOX IMVI,92%
same,"growth, % of control at 10 µM",HCC 2998,84%

# Source: ChEMBL document CHEMBL1154382, “Preliminary SAR analysis of novel antiproliferative N(6),5'-bis-ureidoadenosine derivatives” (2009)
